{"source": "the NIST ThermoML archive (doi:10.1021/je7003929)", "test": "xn = mol fraction of the nth substance listed", "conditions": "Liquid, Vibrating tube method", "note": "Numbers after ± are expanded uncertainties."}
{"smiles": "c1ccc2sccc2c1", "note": "[benzo[b]thiophene] + CCCCCC", "values": [{"measurement": "mass density", "setting": "352.41 K, 1015 kPa, x2 = 0.0629", "result": "1076.7 ± 0.5", "unit": "kg/m3"}, {"measurement": "mass density", "setting": "352.41 K, 2020 kPa, x2 = 0.0629", "result": "1077.4 ± 0.5", "unit": "kg/m3"}, {"measurement": "mass density", "setting": "352.41 K, 3016 kPa, x2 = 0.0629", "result": "1078.1 ± 0.5", "unit": "kg/m3"}, {"measurement": "mass density", "setting": "352.41 K, 4038 kPa, x2 = 0.0629", "result": "1078.8 ± 0.5", "unit": "kg/m3"}, {"measurement": "mass density", "setting": "352.41 K, 5000 kPa, x2 = 0.0629", "result": "1079.5 ± 0.5", "unit": "kg/m3"}, {"measurement": "mass density", "setting": "352.41 K, 6001 kPa, x2 = 0.0629", "result": "1080.4 ± 0.5", "unit": "kg/m3"}, {"measurement": "mass density", "setting": "352.41 K, 7017 kPa, x2 = 0.0629", "result": "1081.1 ± 0.5", "unit": "kg/m3"}, {"measurement": "mass density", "setting": "352.41 K, 8008 kPa, x2 = 0.0629", "result": "1082 ± 0.5", "unit": "kg/m3"}, {"measurement": "mass density", "setting": "352.41 K, 9017 kPa, x2 = 0.0629", "result": "1082.6 ± 0.5", "unit": "kg/m3"}, {"measurement": "mass density", "setting": "352.41 K, 10026 kPa, x2 = 0.0629", "result": "1083.4 ± 0.5", "unit": "kg/m3"}, {"measurement": "mass density", "setting": "352.41 K, 11018 kPa, x2 = 0.0629", "result": "1084.1 ± 0.5", "unit": "kg/m3"}, {"measurement": "mass density", "setting": "352.41 K, 12014 kPa, x2 = 0.0629", "result": "1084.7 ± 0.5", "unit": "kg/m3"}, {"measurement": "mass density", "setting": "352.41 K, 13014 kPa, x2 = 0.0629", "result": "1085.4 ± 0.5", "unit": "kg/m3"}, {"measurement": "mass density", "setting": "352.41 K, 14022 kPa, x2 = 0.0629", "result": "1086.2 ± 0.5", "unit": "kg/m3"}, {"measurement": "mass density", "setting": "352.41 K, 15028 kPa, x2 = 0.0629", "result": "1086.8 ± 0.5", "unit": "kg/m3"}, {"measurement": "mass density", "setting": "352.41 K, 16020 kPa, x2 = 0.0629", "result": "1087.6 ± 0.5", "unit": "kg/m3"}, {"measurement": "mass density", "setting": "352.41 K, 17023 kPa, x2 = 0.0629", "result": "1088.2 ± 0.5", "unit": "kg/m3"}, {"measurement": "mass density", "setting": "352.41 K, 18015 kPa, x2 = 0.0629", "result": "1088.8 ± 0.5", "unit": "kg/m3"}, {"measurement": "mass density", "setting": "352.41 K, 19016 kPa, x2 = 0.0629", "result": "1089.5 ± 0.5", "unit": "kg/m3"}, {"measurement": "mass density", "setting": "352.41 K, 20019 kPa, x2 = 0.0629", "result": "1090.2 ± 0.5", "unit": "kg/m3"}, {"measurement": "mass density", "setting": "352.53 K, 1025 kPa, x2 = 0.9432", "result": "630.4 ± 0.5", "unit": "kg/m3"}, {"measurement": "mass density", "setting": "352.53 K, 1026 kPa, x2 = 0.7491", "result": "725.1 ± 0.5", "unit": "kg/m3"}, {"measurement": "mass density", "setting": "352.53 K, 2023 kPa, x2 = 0.9432", "result": "632.1 ± 0.5", "unit": "kg/m3"}, {"measurement": "mass density", "setting": "352.53 K, 2026 kPa, x2 = 0.7491", "result": "726.5 ± 0.5", "unit": "kg/m3"}, {"measurement": "mass density", "setting": "352.53 K, 3024 kPa, x2 = 0.7491", "result": "727.8 ± 0.5", "unit": "kg/m3"}, {"measurement": "mass density", "setting": "352.53 K, 3030 kPa, x2 = 0.9432", "result": "633.8 ± 0.5", "unit": "kg/m3"}, {"measurement": "mass density", "setting": "352.53 K, 4018 kPa, x2 = 0.9432", "result": "635.4 ± 0.5", "unit": "kg/m3"}, {"measurement": "mass density", "setting": "352.53 K, 4034 kPa, x2 = 0.7491", "result": "729.2 ± 0.5", "unit": "kg/m3"}, {"measurement": "mass density", "setting": "352.53 K, 5014 kPa, x2 = 0.7491", "result": "730.5 ± 0.5", "unit": "kg/m3"}, {"measurement": "mass density", "setting": "352.53 K, 5021 kPa, x2 = 0.9432", "result": "637 ± 0.5", "unit": "kg/m3"}, {"measurement": "mass density", "setting": "352.53 K, 6018 kPa, x2 = 0.9432", "result": "638.5 ± 0.5", "unit": "kg/m3"}, {"measurement": "mass density", "setting": "352.53 K, 6040 kPa, x2 = 0.7491", "result": "731.8 ± 0.5", "unit": "kg/m3"}, {"measurement": "mass density", "setting": "352.53 K, 7010 kPa, x2 = 0.9432", "result": "639.9 ± 0.5", "unit": "kg/m3"}, {"measurement": "mass density", "setting": "352.53 K, 7028 kPa, x2 = 0.7491", "result": "733 ± 0.5", "unit": "kg/m3"}, {"measurement": "mass density", "setting": "352.53 K, 8017 kPa, x2 = 0.7491", "result": "734.3 ± 0.5", "unit": "kg/m3"}, {"measurement": "mass density", "setting": "352.53 K, 8018 kPa, x2 = 0.9432", "result": "641.4 ± 0.5", "unit": "kg/m3"}, {"measurement": "mass density", "setting": "352.53 K, 9003 kPa, x2 = 0.7491", "result": "735.5 ± 0.5", "unit": "kg/m3"}, {"measurement": "mass density", "setting": "352.53 K, 9044 kPa, x2 = 0.9432", "result": "642.8 ± 0.5", "unit": "kg/m3"}, {"measurement": "mass density", "setting": "352.53 K, 10008 kPa, x2 = 0.7491", "result": "736.7 ± 0.5", "unit": "kg/m3"}, {"measurement": "mass density", "setting": "352.53 K, 10011 kPa, x2 = 0.9432", "result": "644.2 ± 0.5", "unit": "kg/m3"}, {"measurement": "mass density", "setting": "352.53 K, 11016 kPa, x2 = 0.7491", "result": "737.9 ± 0.5", "unit": "kg/m3"}, {"measurement": "mass density", "setting": "352.53 K, 11022 kPa, x2 = 0.9432", "result": "645.5 ± 0.5", "unit": "kg/m3"}, {"measurement": "mass density", "setting": "352.53 K, 12002 kPa, x2 = 0.7491", "result": "739 ± 0.5", "unit": "kg/m3"}, {"measurement": "mass density", "setting": "352.53 K, 12013 kPa, x2 = 0.9432", "result": "646.9 ± 0.5", "unit": "kg/m3"}, {"measurement": "mass density", "setting": "352.53 K, 13005 kPa, x2 = 0.9432", "result": "648.2 ± 0.5", "unit": "kg/m3"}, {"measurement": "mass density", "setting": "352.53 K, 13020 kPa, x2 = 0.7491", "result": "740.2 ± 0.5", "unit": "kg/m3"}, {"measurement": "mass density", "setting": "352.53 K, 14000 kPa, x2 = 0.9432", "result": "649.5 ± 0.5", "unit": "kg/m3"}, {"measurement": "mass density", "setting": "352.53 K, 14016 kPa, x2 = 0.7491", "result": "741.3 ± 0.5", "unit": "kg/m3"}, {"measurement": "mass density", "setting": "352.53 K, 15021 kPa, x2 = 0.9432", "result": "650.8 ± 0.6", "unit": "kg/m3"}, {"measurement": "mass density", "setting": "352.53 K, 15037 kPa, x2 = 0.7491", "result": "742.5 ± 0.5", "unit": "kg/m3"}, {"measurement": "mass density", "setting": "352.53 K, 16022 kPa, x2 = 0.9432", "result": "652 ± 0.6", "unit": "kg/m3"}, {"measurement": "mass density", "setting": "352.53 K, 16035 kPa, x2 = 0.7491", "result": "743.6 ± 0.5", "unit": "kg/m3"}, {"measurement": "mass density", "setting": "352.53 K, 17001 kPa, x2 = 0.9432", "result": "653.2 ± 0.6", "unit": "kg/m3"}, {"measurement": "mass density", "setting": "352.53 K, 17020 kPa, x2 = 0.7491", "result": "744.6 ± 0.5", "unit": "kg/m3"}, {"measurement": "mass density", "setting": "352.53 K, 18013 kPa, x2 = 0.9432", "result": "654.4 ± 0.6", "unit": "kg/m3"}, {"measurement": "mass density", "setting": "352.53 K, 18020 kPa, x2 = 0.7491", "result": "745.7 ± 0.5", "unit": "kg/m3"}, {"measurement": "mass density", "setting": "352.53 K, 19007 kPa, x2 = 0.9432", "result": "655.6 ± 0.6", "unit": "kg/m3"}, {"measurement": "mass density", "setting": "352.53 K, 19008 kPa, x2 = 0.7491", "result": "746.7 ± 0.5", "unit": "kg/m3"}, {"measurement": "mass density", "setting": "352.53 K, 20019 kPa, x2 = 0.7491", "result": "747.8 ± 0.5", "unit": "kg/m3"}, {"measurement": "mass density", "setting": "352.53 K, 20039 kPa, x2 = 0.9432", "result": "656.7 ± 0.6", "unit": "kg/m3"}, {"measurement": "mass density", "setting": "352.63 K, 1037 kPa, x2 = 0.4495", "result": "874.2 ± 0.4", "unit": "kg/m3"}, {"measurement": "mass density", "setting": "352.63 K, 2029 kPa, x2 = 0.4495", "result": "875.3 ± 0.5", "unit": "kg/m3"}, {"measurement": "mass density", "setting": "352.63 K, 3026 kPa, x2 = 0.4495", "result": "876.4 ± 0.5", "unit": "kg/m3"}, {"measurement": "mass density", "setting": "352.63 K, 4032 kPa, x2 = 0.4495", "result": "877.5 ± 0.5", "unit": "kg/m3"}, {"measurement": "mass density", "setting": "352.63 K, 5015 kPa, x2 = 0.4495", "result": "878.5 ± 0.5", "unit": "kg/m3"}, {"measurement": "mass density", "setting": "352.63 K, 6024 kPa, x2 = 0.4495", "result": "879.5 ± 0.5", "unit": "kg/m3"}, {"measurement": "mass density", "setting": "352.63 K, 7028 kPa, x2 = 0.4495", "result": "880.5 ± 0.5", "unit": "kg/m3"}, {"measurement": "mass density", "setting": "352.63 K, 8017 kPa, x2 = 0.4495", "result": "881.5 ± 0.5", "unit": "kg/m3"}, {"measurement": "mass density", "setting": "352.63 K, 9003 kPa, x2 = 0.4495", "result": "882.5 ± 0.5", "unit": "kg/m3"}, {"measurement": "mass density", "setting": "352.63 K, 10022 kPa, x2 = 0.4495", "result": "883.5 ± 0.5", "unit": "kg/m3"}]}
